In patent publication US20100041089A1, “IMPROVED METHOD FOR DETECTING CHEMICAL […]” (priority 2006, published 2010):

Test system: yeast genes (expressed mRNA)
Test: DNA chip measurement of expressed mRNA of yeast genes after culture with a toxic chemical substance
Assay type: cell-based, Saccharomyces cerevisiae S288C
Details: for level of expressed mRNA in the presence of chemical substance / level in the absence of chemical substance: cultured two hours with the chemical substance; for The level of expressed mRNA in the presence of chemical substance/The level of expressed mRNA in the absence of chemical substance: cultured two hours with substance
How it was run: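 Expression is given as treated/untreated fluorescence ratio on a whole-genome yeast DNA chip, a ratio of two or more being significant. Log-phase S288C cultures in YPD at 25 °C received the chemical for 2 h at a dose that slows growth without killing. mRNA was reverse-transcribed with Cy3- or Cy5-dUTP.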

Na2As [(1)]
level of expressed mRNA in the presence of chemical substance / level in the absence of chemical substance (yeast gene YNL058C): 2.0
level of expressed mRNA in the presence of chemical substance / level in the absence of chemical substance (yeast gene YNL063W): 0.9
The level of expressed mRNA in the presence of chemical substance/The level of expressed mRNA in the absence of chemical substance (yeast gene YNL074C): 0.9
The level of expressed mRNA in the presence of chemical substance/The level of expressed mRNA in the absence of chemical substance (yeast gene YNL092W): 1.3
The level of expressed mRNA in the presence of chemical substance/The level of expressed mRNA in the absence of chemical substance (yeast gene YNL115C): 0.7
The level of expressed mRNA in the presence of chemical substance/The level of expressed mRNA in the absence of chemical substance (yeast gene YNL156C): 1.1
level of expressed mRNA in the presence of chemical substance / level in the absence of chemical substance (yeast gene YNL176C): 1.1
level of expressed mRNA in the presence of chemical substance / level in the absence of chemical substance (yeast gene YNL194C): 1.6
level of expressed mRNA in the presence of chemical substance / level in the absence of chemical substance (yeast gene YNL200C): 1.0
The level of expressed mRNA in the presence of chemical substance/The level of expressed mRNA in the absence of chemical substance (yeast gene YNL234W): 1.1
level of expressed mRNA in the presence of chemical substance / level in the absence of chemical substance (yeast gene YNL253W): 1.3
level of expressed mRNA in the presence of chemical substance / level in the absence of chemical substance (yeast gene YNL276C): 1.3
The level of expressed mRNA in the presence of chemical substance/The level of expressed mRNA in the absence of chemical substance (yeast gene YNL281W): 1.0
The level of expressed mRNA in the presence of chemical substance/The level of expressed mRNA in the absence of chemical substance (yeast gene YNL305C): 0.9
level of expressed mRNA in the presence of chemical substance / level in the absence of chemical substance (yeast gene YNR051C): 0.7
The level of expressed mRNA in the presence of chemical substance/The level of expressed mRNA in the absence of chemical substance (yeast gene YNR068C): 1.2
level of expressed mRNA in the presence of chemical substance / level in the absence of chemical substance (yeast gene YOL026C): 1.2
The level of expressed mRNA in the presence of chemical substance/The level of expressed mRNA in the absence of chemical substance (yeast gene YOL032W): 1.3
The level of expressed mRNA in the presence of chemical substance/The level of expressed mRNA in the absence of chemical substance (yeast gene YOL036W): 0.8
The level of expressed mRNA in the presence of chemical substance/The level of expressed mRNA in the absence of chemical substance (yeast gene YOL047C): 1.4
The level of expressed mRNA in the presence of chemical substance/The level of expressed mRNA in the absence of chemical substance (yeast gene YOL071W): 1.3
The level of expressed mRNA in the presence of chemical substance/The level of expressed mRNA in the absence of chemical substance (yeast gene YOL082W): 1.0
The level of expressed mRNA in the presence of chemical substance/The level of expressed mRNA in the absence of chemical substance (yeast gene YOL083W): 1.1
The level of expressed mRNA in the presence of chemical substance/The level of expressed mRNA in the absence of chemical substance (yeast gene YOL117W): 1.0
The level of expressed mRNA in the presence of chemical substance/The level of expressed mRNA in the absence of chemical substance (yeast gene YOL131W): 1.0
The level of expressed mRNA in the presence of chemical substance/The level of expressed mRNA in the absence of chemical substance (yeast gene YOL150C): 4.1
The level of expressed mRNA in the presence of chemical substance/The level of expressed mRNA in the absence of chemical substance (yeast gene YOL162W): 2.0
The level of expressed mRNA in the presence of chemical substance/The level of expressed mRNA in the absence of chemical substance (yeast gene YOR019W): 2.9
level of expressed mRNA in the presence of chemical substance / level in the absence of chemical substance (yeast gene YOR022C): 1.3
level of expressed mRNA in the presence of chemical substance / level in the absence of chemical substance (yeast gene YOR087W): 0.7
level of expressed mRNA in the presence of chemical substance / level in the absence of chemical substance (yeast gene YOR138C): 0.8
The level of expressed mRNA in the presence of chemical substance/The level of expressed mRNA in the absence of chemical substance (yeast gene YOR197W): 0.8
level of expressed mRNA in the presence of chemical substance / level in the absence of chemical substance (yeast gene YOR253W): 0.9
level of expressed mRNA in the presence of chemical substance / level in the absence of chemical substance (yeast gene YOR267C): 0.8
level of expressed mRNA in the presence of chemical substance / level in the absence of chemical substance (yeast gene YOR325W): 1.0
level of expressed mRNA in the presence of chemical substance / level in the absence of chemical substance (yeast gene YPL005W): 1.0
The level of expressed mRNA in the presence of chemical substance/The level of expressed mRNA in the absence of chemical substance (yeast gene YPL087W): 1.0
level of expressed mRNA in the presence of chemical substance / level in the absence of chemical substance (yeast gene YPL150W): 0.7
level of expressed mRNA in the presence of chemical substance / level in the absence of chemical substance (yeast gene YPL152W): 1.4
level of expressed mRNA in the presence of chemical substance / level in the absence of chemical substance (yeast gene YPL168W): 1.1
level of expressed mRNA in the presence of chemical substance / level in the absence of chemical substance (yeast gene YPL180W): 0.9
level of expressed mRNA in the presence of chemical substance / level in the absence of chemical substance (yeast gene YPL188W): 1.3
The level of expressed mRNA in the presence of chemical substance/The level of expressed mRNA in the absence of chemical substance (yeast gene YPL196W): 1.3
The level of expressed mRNA in the presence of chemical substance/The level of expressed mRNA in the absence of chemical substance (yeast gene YPL206C): 1.0
level of expressed mRNA in the presence of chemical substance / level in the absence of chemical substance (yeast gene YPL221W): 0.9
The level of expressed mRNA in the presence of chemical substance/The level of expressed mRNA in the absence of chemical substance (yeast gene YPL222W): 0.9
level of expressed mRNA in the presence of chemical substance / level in the absence of chemical substance (yeast gene YPL225W): 1.3
The level of expressed mRNA in the presence of chemical substance/The level of expressed mRNA in the absence of chemical substance (yeast gene YPR023C): 1.2
level of expressed mRNA in the presence of chemical substance / level in the absence of chemical substance (yeast gene YPR049C): 1.0
level of expressed mRNA in the presence of chemical substance / level in the absence of chemical substance (yeast gene YPR146C): 0.8
level of expressed mRNA in the presence of chemical substance / level in the absence of chemical substance (yeast gene YPR148C): 1.1
The level of expressed mRNA in the presence of chemical substance/The level of expressed mRNA in the absence of chemical substance (yeast gene YPR151C): 2.3
level of expressed mRNA in the presence of chemical substance / level in the absence of chemical substance (yeast gene YPR172W): 1.1
